Results from ChEMBL document CHEMBL1201862, “PubChem BioAssay data set” (2004).
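Growth conditions: 96-well plates. Treatment: test compound, 48 hours, 5 concentrations. Analysis: linear interpolation between bracketing concentrations; unreached endpoints set to highest concentration. GI50: concentration for 50% inhibition of growth.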 The source made the active and inactive calls. Cut-off read from the data, not from the text of the source: active = GI50 up to about 1.1 µM and inactive = higher.

Key:
Assay in all cases: NCI tumour cell line growth inhibition, 48 h
COLO 205 = system: COLO 205
IGROV-1 = system: IGROV-1
SF-268 = system: SF-268
SN12C = system: SN12C
HOP-92 = system: HOP-92
RXF 393 = system: RXF 393
UO-31 = system: UO-31
SK-MEL-2 = system: SK-MEL-2
UACC-257 = system: UACC-257
K562 = system: K562
SNB-19 = system: SNB-19
OVCAR-3 = system: OVCAR-3
A549 = system: A549
CCRF-CEM = system: CCRF-CEM
OVCAR-5 = system: OVCAR-5
HT-29 = system: HT-29
SK-MEL-5 = system: SK-MEL-5
NCI-H226 = system: NCI-H226
SNB-75 = system: SNB-75
RPMI-8226 = system: RPMI-8226

Measured: GI50

O=C(O)c1ccccc1C(=O)c1ccco1
inactive: COLO 205 > 100 µM | IGROV-1 > 100 µM | SF-268 > 100 µM | SN12C > 100 µM | HOP-92 > 100 µM | RXF 393 > 100 µM | UO-31 > 100 µM | SK-MEL-2 > 100 µM | UACC-257 > 100 µM | K562 > 100 µM | SNB-19 > 100 µM | OVCAR-3 > 100 µM | A549 > 100 µM | CCRF-CEM > 100 µM | OVCAR-5 > 100 µM | HT-29 > 100 µM | SK-MEL-5 > 100 µM | NCI-H226 > 100 µM | SNB-75 > 100 µM

COC(=O)C1(c2ccc(N(C)C)cc2OC)CCCN(C(=O)Oc2ccccc2[N+](=O)[O-])CCc2c1[nH]c1ccccc21 (configuration not stated)
inactive: COLO 205 > 100 µM | IGROV-1 > 100 µM | SF-268 > 100 µM | SN12C > 100 µM | HOP-92 > 100 µM | RXF 393 > 100 µM | UO-31 51.4 µM | SK-MEL-2 > 100 µM | UACC-257 > 100 µM | K562 78.3 µM | OVCAR-3 > 100 µM | A549 > 100 µM | OVCAR-5 > 100 µM | HT-29 > 100 µM | SK-MEL-5 > 100 µM | NCI-H226 > 100 µM | SNB-75 > 100 µM

COC(=O)C1CCC(=O)N1/C(C)=N/NC(=O)Nc1ccc(Cl)c(Cl)c1 (configuration not stated)
inactive: COLO 205 > 100 µM | IGROV-1 > 100 µM | SF-268 69.5 µM | SN12C > 100 µM | HOP-92 > 100 µM | RXF 393 > 100 µM | UO-31 > 100 µM | SK-MEL-2 > 100 µM | UACC-257 > 100 µM | K562 16.6 µM | SNB-19 > 100 µM | OVCAR-3 > 100 µM | A549 > 100 µM | CCRF-CEM > 100 µM | RPMI-8226 > 100 µM | SK-MEL-5 > 100 µM | SNB-75 65.3 µM

CCOC(=O)C[C@@H]1C2(C=C[C@@]13CO3)OCC(C)(C)CO2
inactive: COLO 205 > 100 µM | IGROV-1 > 100 µM | SF-268 > 100 µM | SN12C > 100 µM | HOP-92 > 100 µM | RXF 393 > 100 µM | UO-31 > 100 µM | SK-MEL-2 > 100 µM | UACC-257 > 100 µM | K562 > 100 µM | OVCAR-3 > 100 µM | A549 > 100 µM | CCRF-CEM > 100 µM | OVCAR-5 > 100 µM | HT-29 > 100 µM | SK-MEL-5 > 100 µM | NCI-H226 > 100 µM | SNB-75 > 100 µM

COc1ccc(C2C(C(=O)O)=C(COC(C)=O)Oc3cc4c(cc32)OCO4)cc1 (configuration not stated)
inactive: COLO 205 > 100 µM | IGROV-1 > 100 µM | SN12C > 100 µM | HOP-92 > 100 µM | RXF 393 > 100 µM | UO-31 > 100 µM | UACC-257 > 100 µM | K562 > 100 µM | SNB-19 > 100 µM | OVCAR-3 > 100 µM | A549 > 100 µM | CCRF-CEM > 100 µM | RPMI-8226 > 100 µM | HT-29 > 100 µM | SK-MEL-5 > 100 µM | SNB-75 > 100 µM
